Like-named read-outs stand apart in the source and are kept apart here.
How the values were obtained:
[1] = test system: Hedgehog pathway activation (GLi-luciferase reporter) in Shh Light II reporter cells; assay: Hedgehog pathway activation on Shh Light II reporter cells measured by luciferase activity; assay type: cell-based; details: Mus musculus, Shh Light II
In short: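 Shh Light II reporter cells carrying a hedgehog-responsive GLi-luciferase reporter were stimulated either with 500 nM SAG, a direct Smoothened agonist, or with conditioned media containing human Sonic Hedgehog (hShh). Test compounds were evaluated for blocking this pathway activation, quantified by luciferase activity. Cell viability was monitored in parallel with the Celltiter-Blue® assay.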

[2] = test system: Hedgehog pathway activation on 10T1/2/Smo#3 cells (C3H10T1/2 cells transfected with human Smoothened receptor); assay: Hedgehog pathway activation on 10T1/2/Smo#3 cells measured by ALP activity; assay type: cell-based; details: Mus musculus, C3H 10T1/2, 10T1/2/Smo#3 cells
Experimental: Hedgehog conditioned media was obtained by transfecting 293H cells with the full length gene encoding human Sonic Hedgehog (hShh) inserted into the pCMV6 expression vector, which contains a neomycin selectable marker and expresses the protein of interest with a C-terminal FLAG affinity tag. After selection in G418 containing media, conditioned media from Hedgehog expressing clones were tested for the ability to activate the hedgehog-responsive GLi-luciferase reporter in the Shh Light II cell line obtained by license from John Hopkins University (Taipale J, et al. Effects of oncogenic mutations in Smoothened and Patched can be reversed by cyclopamine. Nature 406: 1005-1009, 2000).
C3H10T1/2 cells were transfected with a pCMV expression vector containing the full length gene sequence encoding the human Smoothened receptor. Pooled cells, designated 10T1/2/Smo#3, growing in G418 selection media responded to activation by 10-20% conditioned hShh media with an approximate 5-10 fold increase in alkaline phosphaste (ALP) activity over untransfected parent C3H10T1/2 cells as measured by the conversion of the free acid of 4-methylumbelliferyl phosphate to a fluorescent product.
A test compound library was screened against hShh and 500 nM SAG (a direct agonist of the Smoothened receptor) activated 10T1/2/Smo#3 cells and Shh Light II reporter cells for the ability to block Hedgehog pathway activation. Concurrently, cell viability was measured by utilizing Celltiter-Blue® (Promega, Madison Wis.) viability assay. Active compounds were defined as those that inhibited Hedgehog signaling by greater than 50% with no concurrent loss in cell viability.
Their inhibitory activity against Hedgehog pathway activation on 10T1/2/Smo#3 cells as measured by ALP activity and Shh Light II reporter cells as measured by luciferase activity is shown in Table 1 below. In Table 1, +++ stands for an IC50 value that is less than 0.3 μM, ++ between 0.3 and 3 μM, + between 3 and 30 μM.
Additional data for compounds of the invention is shown below in Table 2. Their inhibitory activities against Hedgehog pathway activation are shown as IC50 values in μM on 10T1/2/Smo#3 cells as measured by ALP activity, or on Shh Light II reporter cells as measured by luciferase activity (hShh activation).

[3] = SAG activation (500 nM SAG), read-out: Shh Light II luciferase activity (SAG activation)
[4] = hShh activation, read-out: Shh (IC50, inhibition of Hedgehog pathway activation)
[5] = hShh activation, read-out: Shh Light II luciferase activity (hShh activation)
[6] = hShh activation, ALP activity, read-out: 10T1/2/Smo#3 ALP activity (hShh Activation)
[7] = measured by ALP activity, read-out: ALP (IC50, inhibition of Hedgehog pathway activation)

Structure (SMILES)	IC50 [1, 4]	IC50 [2, 7]	further results
Cc1ccc(-c2cn3nc(-c4ccc(/C(N)=N/O)cc4C(F)(F)F)ccc3n2)cc1NC(=O)C(C)(C)C [compound 511, N-(5-(6-(4-(N′-hydroxycarbamimidoyl)-2-(trifluoromethyl)phenyl)imidazo[1,2-b]pyridazin-2-yl)-2-methylphenyl)pivalamide]	10 nM	2 nM	IC50 [1, 3]: < 300 nM; IC50 [1, 5]: < 300 nM; IC50 [2, 6]: < 300 nM
Cc1ccc(-c2cn3nc(N4CCC(O)C4)ccc3n2)cc1NC(=O)C(C)(C)C (centres unmarked) [Example 468, N-(5-(6-(3-hydroxypyrrolidin-1-yl)imidazo[1,2-b]pyridazin-2-yl)-2-methylphenyl)pivalamide]	44 nM	23 nM	–
CC(C)(C)C(=O)Nc1cc(-c2cn3nc(N(CCO)CCO)ccc3n2)ccc1C(F)(F)F [Example 359, N-(5-(6-(bis(2-hydroxyethyl)amino)imidazo[1,2-b]pyridazin-2-yl)-2-(trifluoromethyl)phenyl)pivalamide]	1850 nM	1900 nM	–
Cc1ccc(-c2cn3nc(-c4cscn4)ccc3n2)cc1NC(=O)C(C)(C)C [Example 445, N-(2-methyl-5-(6-(thiazol-4-yl)imidazo[1,2-b]pyridazin-2-yl)phenyl)pivalamide]	794 nM	578 nM	–
Cc1c(-c2ccccn2)nn2cc(-c3ccc(C(F)(F)F)c(NC(=O)C(C)(C)C)c3)nc2c1C [Example 202, N-(5-(7,8-dimethyl-6-(pyridin-2-yl)-imidazo[1,2-b]pyridazin-2-yl)-2-(trifluoromethyl)phenyl)pivalamide]	221 nM	1320 nM	–
Cc1ccc(-c2cn3nc(Cl)ccc3n2)cc1NC(=O)C(C)(C)C(F)(F)F [Example 122, N-(5-(6-chloroimidazo[1,2-b]pyridazin-2-yl)-2-methylphenyl)-3,3,3-trifluoro-2,2-dimethylpropanamide]	3040 nM	1940 nM	–
Cc1ccc(-c2cn3nc(-c4ccc(C(=O)NO)cc4C(F)(F)F)ccc3n2)cc1NC(=O)C(C)(C)C [Example 437, N-hydroxy-4-(2-(4-methyl-3-pivalamidophenyl)imidazo[1,2-b]pyridazin-6-yl)-3-(trifluoromethyl)benzamide]	71 nM	150 nM	IC50 [1, 3]: < 300 nM; IC50 [1, 5]: < 300 nM; IC50 [2, 6]: < 300 nM
Cc1ccc(-c2cn3nc(N4CCC(N(C)C)C4)ccc3n2)cc1NC(=O)C(C)(C)C (centres unmarked) [Example 361, N-(5-(6-(3-(dimethylamino)pyrrolidin-1-yl)imidazo[1,2-b]pyridazin-2-yl)-2-methylphenyl)pivalamide]	84 nM	110 nM	–
CC1CN(c2ccc3nc(-c4ccc(OC(F)(F)F)c(NC(=O)C(C)(C)C)c4)cn3n2)CC(C)O1 (centres unmarked) [Example 266, N-(5-(6-(2,6-dimethylmorpholino)imidazo[1,2-b]pyridazin-2-yl)-2-(trifluoromethoxy)phenyl)pivalamide]	–	1530 nM	–
Cc1ncccc1-c1ccc2nc(-c3ccc(C(F)(F)F)c(NC(=O)C(C)(C)C)c3)cn2n1 [Example 293, N-(5-(6-(2-methylpyridin-3-yl)imidazo[1,2-b]pyridazin-2-yl)-2-(trifluoromethyl)phenyl)pivalamide]	310 nM	221 nM	–
CC(C)(C)C(=O)Nc1cc(-c2cn3nc(N4CCN(C(=N)N)CC4)ccc3n2)ccc1C(F)(F)F [compound 570]	240 nM	730 nM	–
Cc1ccc(-c2cn3nc(NCc4ccc(C(=O)Nc5ccccc5N)cc4)ccc3n2)cc1NC(=O)C(C)(C)C [compound 599]	48 nM	248 nM	–
Cc1ccc(-c2cn3nc(-c4ccccc4OC(F)(F)F)ccc3n2)cc1NC(=O)C(C)(C)C [Example 263, N-(2-methyl-5-(6-(2-(trifluoromethoxy)phenyl)imidazo[1,2-b]pyridazin-2-yl)phenyl)pivalamide]	228 nM	102 nM	–
CC(C)(C)C(=O)Nc1cc(-c2cn3nc(N4CCC[C@H](O)C4)ccc3n2)ccc1C(F)(F)F [Example 358, (S)-N-(5-(6-(3-hydroxypiperidin-1-yl)imidazo[1,2-b]pyridazin-2-yl)-2-(trifluoromethyl)phenyl)pivalamide]	225 nM	387 nM	–
CC(C)Oc1ccccc1-c1ccc2nc(-c3ccc(C(F)(F)F)c(NC(=O)C(C)(C)C)c3)cn2n1 [Example 251, N-(5-(6-(2-isopropoxyphenyl)imidazo[1,2-b]pyridazin-2-yl)-2-(trifluoromethyl)phenyl)pivalamide]	–	518 nM	–
C[C@@H]1CN(c2ccc3nc(-c4ccc(C(F)(F)F)c(NC(=O)C(C)(C)C)c4)cn3n2)C[C@H](C)O1 [Example 250, N-(5-(6-(2,6-dimethylmorpholino)imidazo[1,2-b]pyridazin-2-yl)-2-(trifluoromethyl)phenyl)pivalamide]	–	259 nM	–
CC(=O)c1cccc(-c2ccc3nc(-c4ccc(C(F)(F)F)c(NC(=O)C(C)(C)C)c4)cn3n2)c1 [Example 254, N-(5-(6-(3-acetylphenyl)imidazo[1,2-b]pyridazin-2-yl)-2-(trifluoromethyl)phenyl)pivalamide]	–	360 nM	–
CC(C)(C)C(=O)Nc1cc(-c2cn3nc(-c4ccccc4F)ccc3n2)ccc1C1CC1 [Example 271, N-(2-cyclopropyl-5-(6-(2-fluorophenyl)imidazo[1,2-b]pyridazin-2-yl)phenyl)pivalamide]	–	246 nM	–
CCOC(=O)c1ccccc1-c1ccc2nc(-c3ccc(C(F)(F)F)c(NC(=O)C(C)(C)C)c3)cn2n1 [Example 257, ethyl 2-(2-(3-pivalamido-4-(trifluoromethyl)phenyl)imidazo[1,2-b]pyridazin-6-yl)benzoate]	–	497 nM	–
CC(C)(C)C(=O)Nc1cc(-c2cn3nc(N4CCOCC4)ccc3n2)ccc1OC(F)(F)F [Example 267, N-(5-(6-morpholinoimidazo[1,2-b]pyridazin-2-yl)-2-(trifluoromethoxy)phenyl)pivalamide]	–	2080 nM	–
CC(C)(C)C(=O)Nc1cc(-c2cn3nc(N4CCC(O)CC4)ccc3n2)ccc1OC(F)(F)F [Example 269, N-(5-(6-(4-hydroxypiperidin-1-yl)imidazo[1,2-b]pyridazin-2-yl)-2-(trifluoromethoxy)phenyl)pivalamide]	–	1010 nM	–
CC(C)(C)C(=O)Nc1cc(-c2cn3nc(Cl)ccc3n2)ccc1OC(F)(F)F [Example 245, N-(5-(6-chloroimidazo[1,2-b]pyridazin-2-yl)-2-(trifluoromethoxy)phenyl)pivalamide]	–	2970 nM	–
C[C@@H]1CN(c2ccc3nc(-c4ccc(OC(F)(F)F)c(NC(=O)C(C)(C)C)c4)cn3n2)C[C@H](C)O1 [Example 463, N-(5-(6-((2R,6S)-2,6-dimethylmorpholino)imidazo[1,2-b]pyridazin-2-yl)-2-(trifluoromethoxy)phenyl)pivalamide]	–	1530 nM	–
CC(C)(C)C(=O)Nc1cc(-c2cn3nc(N4CCN(S(C)(=O)=O)CC4)ccc3n2)ccc1OC(F)(F)F [Example 268, N-(5-(6-(4-(methylsulfonyl)piperazin-1-yl)imidazo[1,2-b]pyridazin-2-yl)-2-(trifluoromethoxy)phenyl)pivalamide]	–	1940 nM	–
CC(C)(C)C(=O)Nc1cc(-c2cn3nc(Cl)ccc3n2)ccc1C1CC1 [Example 270, N-(5-(6-chloroimidazo[1,2-b]pyridazin-2-yl)-2-cyclopropylphenyl)pivalamide]	–	9430 nM	–
CCOc1ccc2nc(-c3ccc(C4CC4)c(NC(=O)C(C)(C)C)c3)cn2n1 [Example 272, N-(2-cyclopropyl-5-(6-ethoxyimidazo[1,2-b]pyridazin-2-yl)phenyl)pivalamide]	–	1260 nM	–
CCOc1ccc2nc(-c3ccc(OC(F)(F)F)c(NC(=O)C(C)(C)C)c3)cn2n1 [Example 246, N-(5-(6-ethoxyimidazo[1,2-b]pyridazin-2-yl)-2-(trifluoromethoxy)phenyl)pivalamide]	–	1320 nM	–
CCCCOc1ccc2nc(-c3ccc(OC(F)(F)F)c(NC(=O)C(C)(C)C)c3)cn2n1 [Example 249, N-(5-(6-butoxyimidazo[1,2-b]pyridazin-2-yl)-2-(trifluoromethoxy)phenyl)pivalamide]	–	889 nM	–

From patent US8871767B2, “2-arylimidazo[1,2-B]pyridazine, 2-phenylimidazo[1,2-A]pyridine, and 2-phenylimidazo[1,2-A]pyrazine derivatives” (Hengrui (USA) Ltd., priority 2010, dated 2014)
